This is an account of results in US20120071458A1, “METHODS FOR TREATING OBESITY” (priority 2006, published 2012).

For data set [1] the following is noted: cited from earlier work.
The nature of data set [2]: AEGR-733/ezetimibe combination therapy patient study: percentage change in body mass. Format: in vivo, human. From the text:
The primary parameter of efficacy in this study is the percentage change in body mass after 12 weeks of therapy.
Approximately 85 subjects were randomized into one of three treatment arms with equal probability. […] Enrolled patients had initial BMIs of both greater than and less than 30 kg/m^2. Patients were not instructed to implement lifestyle changes to induce weight loss. Patients were placed on a heart healthy low fat diet 4-5 weeks prior to start of dosing.
In treatment arm 1, subjects received two capsules: AEGR-733 (5 mg) plus an ezetimibe placebo. In effect, treatment arm 1 represents monotherapy with AEGR-733. In treatment arm 2, subjects received two capsules: an AEGR-733 placebo plus ezetimibe (10 mg). In effect treatment arm 2 represents monotherapy with ezetimibe. In treatment arm 3, subjects received two capsules: an AEGR-733 (5 mg) capsule plus an ezetimibe (10 mg) capsule. Treatment arm 3 patients, in effect, received a combination therapy.
After 4 weeks of treatment, subjects in arms 1 and 3 received a step-up in concentration of AEGR-733 from 5 mg to 7.5 mg for 4 weeks. Thereafter, subjects in arms 1 and 3 received a second step-up in concentration in AEGR-733 from 7.5 mg to 10 mg for 4 more additional weeks of treatment. Subjects in arm 2 continued to receive AEGR-733 matching placebo for the entire 12 weeks of treatment. Subjects randomized to ezetimibe 10 mg in arms 2 and 3 and ezetimibe placebo in arm 1 remained on these doses for the entire 12-week treatment period.
Throughout the study, changes in body weight of the subjects are measured as part of vital signs collection.
FIG. 3 depicts the same data only for those patients with a BMI of greater than 30 kg/m^2. FIG. 4 depicts the same data only for those patients with a BMI of less than or equal to 30 kg/m^2.

The mark [3] stands for this setting: entire cohort, after 12 weeks of daily administration (FIG. 1), AEGR-733 5 then 7.5 then 10 mg, ezetimibe 10 mg.
Setting [4] is: patients with initial BMI greater than 30 kg/m^2 (FIG. 3), after 12 weeks.
The mark [5] stands for this setting: patients with initial BMI less than 30 kg/m^2 (FIG. 4), after 12 weeks.

The structures appear in SMILES notation. Like-named read-outs stand apart in the source and are kept apart here.

Take `O=C(NC1CCN(CCCCC2(C(=O)NCC(F)(F)F)c3ccccc3-c3ccccc32)CC1)c1ccccc1-c1ccc(C(F)(F)F)cc1` [AEGR-733, N-(2,2,2-Trifluorethyl)-9-[4-[4-[[[4′-(trifluoromethyl)[1,1′biphenyl]-2-Y1]carbonyl]amino]-1-piperidinyl]butyl]9H-fluorene-9-carboxamide]: the adverse events result in data set [1] (25 mg/day) was “found to cause gastrointestinal disorders, abnormalities in liver function and/or hepatic steatosis”. In addition, the entries for the “percent change in body mass” value in data set [2] (setting [3]), in data set [2] (setting [4]) and in data set [2] (setting [5]) were −1.0%, −0.4% and −1.4%, respectively.
Consider `O=C1[C@H](CC[C@H](O)c2ccc(F)cc2)[C@@H](c2ccc(O)cc2)N1c1ccc(F)cc1` [ezetimibe], for which the “percent change in body mass” value in data set [2] (setting [3]) is −0.2%; in data set [2] (setting [4]), −1.0%; in data set [2] (setting [5]) it was “+0.4%”.
For `Cc1cc(C)c2c3ccccc3n(Cc3ccc(C(C(=O)NC(CO)c4ccccc4)C4CCCC4)cc3)c2n1` [implitapide, (2S)-2-cyclopentyl-2-[4-[2,4-dimethyl-9H-pyrido[2,3-b]indol-9-yl)methyl]phenyl]-N-[(1S)-2-hydroxy-1-phenylethyl]ethanamide], the adverse events result in data set [1] (80 mg/day) is “found to cause gastrointestinal disorders, abnormalities in liver function and/or hepatic steatosis”; in data set [1] (160 mg/day), “found to cause gastrointestinal disorders, abnormalities in liver function and/or hepatic steatosis”.
